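All cell lines were grown in 96-well plates and treated with compound for 48 hours. Here, GI50 denotes the concentration required for 50% inhibition of growth.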 Calls of active or inactive are those of the source. No stated cut-off is given here; in the data, active = GI50 up to about 1.1 µM and inactive = higher.
Legend:
Test in all cases: NCI tumour cell line growth inhibition, 48 h
SK-MEL-2 = test system: SK-MEL-2
A549 = test system: A549
MOLT-4 = test system: MOLT-4
M14 = test system: M14
OVCAR-8 = test system: OVCAR-8
NCI-H460 = test system: NCI-H460
RXF 393 = test system: RXF 393
HOP-92 = test system: HOP-92
UACC-62 = test system: UACC-62
786-0 = test system: 786-0
KM12 = test system: KM12
NCI-H226 = test system: NCI-H226
HCT-15 = test system: HCT-15
RPMI-8226 = test system: RPMI-8226
SNB-19 = test system: SNB-19
EKVX = test system: EKVX
SNB-75 = test system: SNB-75
U-251 = test system: U-251
MDA-MB-435 = test system: MDA-MB-435
NCI-H522 = test system: NCI-H522
A498 = test system: A498
HT-29 = test system: HT-29
SN12C = test system: SN12C
UACC-257 = test system: UACC-257
HOP-62 = test system: HOP-62
HCT-116 = test system: HCT-116
SK-MEL-28 = test system: SK-MEL-28
HL-60 = test system: HL-60
SK-MEL-5 = test system: SK-MEL-5
Malme-3M = test system: Malme-3M
K562 = test system: K562
TK-10 = test system: TK-10
CCRF-CEM = test system: CCRF-CEM
COLO 205 = test system: COLO 205
NCI/ADR-RES = test system: NCI/ADR-RES
PC-3 = test system: PC-3
CAKI-1 = test system: CAKI-1
SW-620 = test system: SW-620
LOX IMVI = test system: LOX IMVI
SF-295 = test system: SF-295
OVCAR-5 = test system: OVCAR-5
OVCAR-4 = test system: OVCAR-4
MCF7 = test system: MCF7
Hs-578T = test system: Hs-578T
SF-539 = test system: SF-539
ACHN = test system: ACHN
HCC 2998 = test system: HCC 2998
SF-268 = test system: SF-268
BT-549 = test system: BT-549
MDA-N = test system: MDA-N
IGROV-1 = test system: IGROV-1
MDA-MB-231 = test system: MDA-MB-231
SK-OV-3 = test system: SK-OV-3
DU-145 = test system: DU-145
T47D = test system: T47D
NCI-H23 = test system: NCI-H23
OVCAR-3 = test system: OVCAR-3
UO-31 = test system: UO-31

COc1cccc(NC(=O)c2c(N)n[nH]c2SC)c1
GI50 (SK-MEL-2): > 100 µM (inactive) | GI50 (A549): > 100 µM (inactive) | GI50 (MOLT-4): > 100 µM (inactive) | GI50 (M14): > 100 µM (inactive) | GI50 (OVCAR-8): > 100 µM (inactive) | GI50 (NCI-H460): > 100 µM (inactive) | GI50 (RXF 393): > 100 µM (inactive) | GI50 (HOP-92): > 100 µM (inactive) | GI50 (UACC-62): > 100 µM (inactive) | GI50 (786-0): > 100 µM (inactive) | GI50 (KM12): > 100 µM (inactive) | GI50 (NCI-H226): > 100 µM (inactive) | GI50 (HCT-15): > 100 µM | GI50 (RPMI-8226): 84.9 µM (inactive) | GI50 (SNB-19): > 100 µM (inactive) | GI50 (EKVX): > 100 µM (inactive) | GI50 (SNB-75): > 100 µM (inactive) | GI50 (U-251): > 100 µM (inactive) | GI50 (MDA-MB-435): > 100 µM (inactive) | GI50 (NCI-H522): > 100 µM (inactive) | GI50 (A498): > 100 µM (inactive) | GI50 (HT-29): > 100 µM (inactive) | GI50 (SN12C): > 100 µM (inactive) | GI50 (UACC-257): > 100 µM (inactive) | GI50 (HOP-62): > 100 µM (inactive) | GI50 (HCT-116): > 100 µM (inactive) | GI50 (SK-MEL-28): > 100 µM (inactive) | GI50 (HL-60): > 100 µM (inactive) | GI50 (SK-MEL-5): > 100 µM (inactive) | GI50 (Malme-3M): > 100 µM (inactive) | GI50 (K562): > 100 µM (inactive) | GI50 (TK-10): > 100 µM (inactive) | GI50 (CCRF-CEM): > 100 µM (inactive) | GI50 (COLO 205): > 100 µM (inactive) | GI50 (NCI/ADR-RES): > 100 µM (inactive) | GI50 (PC-3): > 100 µM (inactive) | GI50 (CAKI-1): > 100 µM (inactive) | GI50 (SW-620): > 100 µM (inactive) | GI50 (LOX IMVI): > 100 µM (inactive) | GI50 (SF-295): > 100 µM (inactive) | GI50 (OVCAR-5): > 100 µM (inactive) | GI50 (OVCAR-4): > 100 µM (inactive) | GI50 (MCF7): > 100 µM (inactive) | GI50 (Hs-578T): > 100 µM (inactive) | GI50 (SF-539): > 100 µM (inactive) | GI50 (ACHN): > 100 µM (inactive) | GI50 (HCC 2998): > 100 µM (inactive) | GI50 (SF-268): > 100 µM (inactive) | GI50 (BT-549): > 100 µM (inactive) | GI50 (MDA-N): > 100 µM (inactive) | GI50 (IGROV-1): > 100 µM (inactive) | GI50 (MDA-MB-231): > 100 µM (inactive) | GI50 (SK-OV-3): > 100 µM (inactive)

Clc1ccc(-c2cc(-c3cc(-c4ccc(Cl)cc4)[nH]n3)[nH]n2)cc1
GI50 (SK-MEL-2): > 100 µM (inactive) | GI50 (DU-145): > 100 µM (inactive) | GI50 (MOLT-4): > 100 µM (inactive) | GI50 (M14): > 100 µM (inactive) | GI50 (RXF 393): > 100 µM (inactive) | GI50 (NCI-H226): > 100 µM (inactive) | GI50 (EKVX): > 100 µM (inactive) | GI50 (MDA-MB-435): > 100 µM (inactive) | GI50 (NCI-H522): > 100 µM (inactive) | GI50 (A498): > 100 µM (inactive) | GI50 (UACC-257): > 100 µM (inactive) | GI50 (HCT-116): > 100 µM (inactive) | GI50 (SK-MEL-5): > 100 µM (inactive) | GI50 (Malme-3M): > 100 µM (inactive) | GI50 (K562): > 100 µM (inactive) | GI50 (COLO 205): > 100 µM (inactive) | GI50 (T47D): > 100 µM (inactive) | GI50 (PC-3): > 100 µM (inactive) | GI50 (NCI-H23): > 100 µM (inactive) | GI50 (OVCAR-3): > 100 µM (inactive) | GI50 (OVCAR-5): > 100 µM (inactive) | GI50 (ACHN): > 100 µM (inactive) | GI50 (BT-549): > 100 µM (inactive) | GI50 (MDA-N): > 100 µM (inactive) | GI50 (UO-31): > 100 µM (inactive) | GI50 (IGROV-1): > 100 µM (inactive) | GI50 (SK-OV-3): > 100 µM (inactive)
